Usually inhibition stands for the percentage by which the read-out fell short of the control.

Among the data in patent publication US20120202818A1, “UREIDOPHENYL SUBSTITUTED TRIAZINE DERIVATIVES AND THEIR THERAPEUTICAL APPLICATIONS” (CALIFORNIA CAPITAL EQUITY, LLC, priority 2009, published 2012) are inhibition values, retold here.

Holding throughout (type): biochemical
One test concerns the target T1, TrkA Kinase (Homo sapiens, UniProt P04629).
T1 construct: purchased Millipore (KinaseProfiler service) and/or Reaction Biology Corp. (Kinase HotSpot service)
Description: TrkA kinase assay (KinaseProfiler / Kinase HotSpot). As to conditions: compound at 1 μM. The method, then: (§1) This example illustrated c-Src kinase, Aurora-A kinase, Flt3 kinase, Ret kinase and TrkA Kinase Assays of selected Compounds from this invention (referred to Daniele Fancelli et al, J. Med. Chem., 2006, 49 (24), pp 7247-7251). The KinaseProfiler™ Service Assay Protocols (Millipore) were used to test the kinase inhibiting activity of novel compounds from this invention. To do this, the buffer composition was as: 20 mM MOPS, 1 mM EDTA, 0.01% Brij-35, 5% Glycerol, 0.1% β-mercaptoethanol, 1 mg/mL BSA. Test compounds were initially dissolved in DMSO at the desired concentration, then serially diluted to the kinase assay buffer. In a final reaction volume of 25 μL, Aurora-A(h) (5-10 mU) is incubated with 8 mM MOPS pH 7.0, 0.2 mM EDTA, 200 μM LRRASLG (Kemptide), 10 mM MgAcetate and [γ^33P-ATP]. The reaction was initiated by the addition of the MgATP mix. After incubation for 40 minute at room temperature, the reaction was stopped by addition of 5 μL of a 3% phosphoric acid solution. 10 μL of the reaction was then spotted onto a P30 filtermat and washed three times for 5 minutes in 50 mM phosphoric acid and once in methanol prior to drying and scintillation counting. Wells containing substrate but no kinase and wells containing a phosphopeptide control were used to set 0% and 100% phosphorylation value, respectively.
(§2) Also Kinase Hotspot ^SM kinase assay was used to test the compounds for IC50 or % inhibitions (Reaction Biology Corp.). Inhibitor IC50 values were determined by titration of compound at the optimal kinase concentration (Kinase EC50).

The target in another test is T2, Ret kinase (Homo sapiens, UniProt P07949).
T2 construct: purchased Millipore (KinaseProfiler service) and/or Reaction Biology Corp. (Kinase HotSpot service)
Description: Ret kinase assay (KinaseProfiler / Kinase HotSpot). As to conditions: compound at 1 μM. The procedure: as §1, §2

The next test addresses T3, Flt3 kinase (Homo sapiens, UniProt P36888).
T3 construct: purchased Millipore (KinaseProfiler service) and/or Reaction Biology Corp. (Kinase HotSpot service)
T3 sequence (P36888 27-993): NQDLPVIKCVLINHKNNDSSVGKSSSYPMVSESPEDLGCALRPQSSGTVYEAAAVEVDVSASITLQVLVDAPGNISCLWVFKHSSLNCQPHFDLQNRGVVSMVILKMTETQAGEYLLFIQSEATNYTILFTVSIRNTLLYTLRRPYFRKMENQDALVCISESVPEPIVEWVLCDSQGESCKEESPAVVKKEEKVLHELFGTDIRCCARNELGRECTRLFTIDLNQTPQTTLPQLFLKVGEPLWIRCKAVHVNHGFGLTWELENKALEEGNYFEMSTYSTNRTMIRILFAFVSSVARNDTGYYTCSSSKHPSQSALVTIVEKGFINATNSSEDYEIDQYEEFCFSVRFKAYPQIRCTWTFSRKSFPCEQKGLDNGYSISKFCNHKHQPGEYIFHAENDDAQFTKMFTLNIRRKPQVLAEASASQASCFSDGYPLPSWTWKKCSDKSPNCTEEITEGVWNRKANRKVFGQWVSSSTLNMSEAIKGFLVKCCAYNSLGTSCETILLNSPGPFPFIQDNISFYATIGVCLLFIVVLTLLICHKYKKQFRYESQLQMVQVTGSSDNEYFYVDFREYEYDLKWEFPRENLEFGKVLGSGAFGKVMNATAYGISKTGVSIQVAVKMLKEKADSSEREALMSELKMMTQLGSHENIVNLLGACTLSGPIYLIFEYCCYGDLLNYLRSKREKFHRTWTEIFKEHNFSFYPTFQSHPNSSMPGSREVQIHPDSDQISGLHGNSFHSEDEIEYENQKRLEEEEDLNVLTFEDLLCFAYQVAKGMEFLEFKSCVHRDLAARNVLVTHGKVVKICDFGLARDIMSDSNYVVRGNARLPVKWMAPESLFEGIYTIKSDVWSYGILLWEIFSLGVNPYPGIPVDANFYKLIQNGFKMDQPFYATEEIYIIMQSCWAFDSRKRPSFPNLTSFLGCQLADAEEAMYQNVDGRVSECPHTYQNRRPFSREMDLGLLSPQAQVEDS
Briefly: Flt3 kinase assay (KinaseProfiler / Kinase HotSpot). As to conditions: compound at 1 μM. The method, then:
as §1, §2

The next test addresses T4, c-Src kinase (Homo sapiens, UniProt P12931).
T4 construct: purchased Millipore (KinaseProfiler service) and/or Reaction Biology Corp. (Kinase HotSpot service)
Briefly: c-Src kinase assay (KinaseProfiler / Kinase HotSpot). As to conditions: compound at 1 μM; read-out: % Inhibition @1 μM cSrc. The method, then: as §1, §2

A further test addresses T5, Aurora-A kinase (Homo sapiens, UniProt O14965).
T5 construct: purchased Millipore (KinaseProfiler service) and/or Reaction Biology Corp. (Kinase HotSpot service)
T5 sequence (O14965 1-403): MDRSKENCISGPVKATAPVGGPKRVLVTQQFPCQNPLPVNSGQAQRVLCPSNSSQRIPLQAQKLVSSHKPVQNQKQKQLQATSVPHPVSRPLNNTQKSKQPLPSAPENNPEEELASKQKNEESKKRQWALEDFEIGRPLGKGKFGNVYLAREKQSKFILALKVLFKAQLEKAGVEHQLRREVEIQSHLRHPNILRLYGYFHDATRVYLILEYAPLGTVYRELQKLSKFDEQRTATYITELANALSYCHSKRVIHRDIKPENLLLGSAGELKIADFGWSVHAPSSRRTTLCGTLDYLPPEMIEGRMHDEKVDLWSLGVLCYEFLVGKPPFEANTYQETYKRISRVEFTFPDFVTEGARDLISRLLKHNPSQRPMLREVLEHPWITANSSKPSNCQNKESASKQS
Description: Aurora-A kinase assay (KinaseProfiler / Kinase HotSpot). As to conditions: compound at 1 μM; read-out: % Inhibition @1 μM Auroro-A. The procedure: as §1, §2

T1 sequence (P04629 33-796): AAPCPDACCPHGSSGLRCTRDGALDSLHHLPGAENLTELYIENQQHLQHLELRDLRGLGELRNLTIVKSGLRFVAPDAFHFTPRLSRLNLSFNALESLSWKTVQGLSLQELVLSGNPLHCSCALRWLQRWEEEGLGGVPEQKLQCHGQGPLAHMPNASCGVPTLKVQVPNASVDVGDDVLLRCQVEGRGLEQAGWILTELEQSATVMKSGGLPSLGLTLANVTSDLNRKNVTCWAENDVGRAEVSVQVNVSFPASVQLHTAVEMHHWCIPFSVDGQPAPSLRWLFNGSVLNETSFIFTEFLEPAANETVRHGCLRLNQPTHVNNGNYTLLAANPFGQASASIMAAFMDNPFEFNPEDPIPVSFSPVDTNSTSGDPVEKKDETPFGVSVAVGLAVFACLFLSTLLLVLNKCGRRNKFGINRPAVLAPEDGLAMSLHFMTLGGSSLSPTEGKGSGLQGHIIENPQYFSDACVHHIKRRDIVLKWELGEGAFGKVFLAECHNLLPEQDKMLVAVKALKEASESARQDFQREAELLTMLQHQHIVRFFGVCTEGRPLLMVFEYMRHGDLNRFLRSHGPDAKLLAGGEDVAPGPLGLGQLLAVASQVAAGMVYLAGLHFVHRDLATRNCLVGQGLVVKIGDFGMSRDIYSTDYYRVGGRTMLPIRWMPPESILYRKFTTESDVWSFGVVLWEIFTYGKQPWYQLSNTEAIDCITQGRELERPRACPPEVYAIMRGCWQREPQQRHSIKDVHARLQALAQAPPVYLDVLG
T2 sequence (P07949 29-1114): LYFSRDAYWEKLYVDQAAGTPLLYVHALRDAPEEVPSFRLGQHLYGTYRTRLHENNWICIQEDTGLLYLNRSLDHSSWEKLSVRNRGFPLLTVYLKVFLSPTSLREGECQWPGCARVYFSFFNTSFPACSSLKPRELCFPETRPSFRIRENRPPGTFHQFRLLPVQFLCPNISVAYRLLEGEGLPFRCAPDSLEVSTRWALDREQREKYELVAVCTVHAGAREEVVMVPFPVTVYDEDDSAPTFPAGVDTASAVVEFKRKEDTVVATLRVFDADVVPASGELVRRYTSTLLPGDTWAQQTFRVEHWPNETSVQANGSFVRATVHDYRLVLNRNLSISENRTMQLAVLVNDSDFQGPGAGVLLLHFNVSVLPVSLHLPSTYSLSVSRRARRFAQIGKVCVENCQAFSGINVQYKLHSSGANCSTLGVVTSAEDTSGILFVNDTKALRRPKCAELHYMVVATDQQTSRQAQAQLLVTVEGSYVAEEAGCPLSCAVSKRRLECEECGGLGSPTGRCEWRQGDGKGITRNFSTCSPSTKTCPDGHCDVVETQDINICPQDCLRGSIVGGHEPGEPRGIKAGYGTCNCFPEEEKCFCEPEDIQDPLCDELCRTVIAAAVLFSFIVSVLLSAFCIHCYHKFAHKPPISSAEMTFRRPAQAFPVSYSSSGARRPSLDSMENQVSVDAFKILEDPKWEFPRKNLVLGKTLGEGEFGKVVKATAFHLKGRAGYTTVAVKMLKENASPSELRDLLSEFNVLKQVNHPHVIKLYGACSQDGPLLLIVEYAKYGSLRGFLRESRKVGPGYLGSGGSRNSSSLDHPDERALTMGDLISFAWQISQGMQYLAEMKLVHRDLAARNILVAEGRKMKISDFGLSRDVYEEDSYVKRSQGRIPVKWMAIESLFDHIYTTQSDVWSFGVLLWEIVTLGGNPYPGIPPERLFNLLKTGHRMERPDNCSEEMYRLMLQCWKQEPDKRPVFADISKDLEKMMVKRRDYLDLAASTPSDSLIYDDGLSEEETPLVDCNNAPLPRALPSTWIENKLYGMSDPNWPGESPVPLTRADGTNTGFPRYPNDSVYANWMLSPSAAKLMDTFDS
T4 sequence (P12931 whole entry): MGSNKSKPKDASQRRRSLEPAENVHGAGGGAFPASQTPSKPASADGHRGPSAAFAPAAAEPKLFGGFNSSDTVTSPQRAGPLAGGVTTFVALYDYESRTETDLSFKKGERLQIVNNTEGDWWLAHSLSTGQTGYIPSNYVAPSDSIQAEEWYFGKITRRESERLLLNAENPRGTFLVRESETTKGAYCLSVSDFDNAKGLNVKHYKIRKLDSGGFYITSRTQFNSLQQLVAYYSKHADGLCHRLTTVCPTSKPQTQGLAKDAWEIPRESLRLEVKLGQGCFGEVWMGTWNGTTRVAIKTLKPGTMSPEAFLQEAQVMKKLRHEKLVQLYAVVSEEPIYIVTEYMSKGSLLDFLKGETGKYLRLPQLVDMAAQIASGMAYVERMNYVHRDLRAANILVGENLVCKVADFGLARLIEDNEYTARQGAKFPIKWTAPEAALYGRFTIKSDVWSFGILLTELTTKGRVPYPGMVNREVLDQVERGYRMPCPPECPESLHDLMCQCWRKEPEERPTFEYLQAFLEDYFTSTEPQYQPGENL

As for `Cc1cnc(Nc2nc(Sc3ccc(NC(=O)Nc4ccccc4)cc3)nc(N3CCN(C)CC3)n2)s1` [Example 4], the inhibition at 1 µM at TrkA Kinase was 50 to 90%; at Ret kinase, 50 to 90%; against Flt3 kinase, 50 to 90%; on c-Src kinase, less than 50%; on Aurora-A kinase, more than 90%.

For `CCc1nc(Nc2ccc(NC(=O)NCc3ccccc3)cc2)nc(Nc2cc(C)[nH]n2)n1` [Example 25], the inhibition at 1 µM at TrkA Kinase was less than 50%; against Ret kinase, more than 90%; at Flt3 kinase it was less than 50%; on c-Src kinase, less than 50%; on Aurora-A kinase, 50 to 90%.

In the case of `CCc1nc(Nc2ccc(NC(=O)Nc3ccc(C(F)(F)F)cc3)cc2)nc(Nc2cc(C)[nH]n2)n1` [Example 12], the inhibition at 1 µM is less than 50% at TrkA Kinase; 50 to 90% against Ret kinase; less than 50% on Flt3 kinase; less than 50% on c-Src kinase; more than 90% at Aurora-A kinase.

In the case of `CCc1nc(Nc2ccc(NC(=O)NC(C)C)cc2)nc(Nc2cc(C)n(C(=O)NC(C)C)n2)n1` [Example 14], the inhibition at 1 µM against TrkA Kinase was less than 50%; on Ret kinase, less than 50%; against Flt3 kinase, less than 50%; on c-Src kinase it was less than 50%; at Aurora-A kinase it was 50 to 90%.

On to `Cc1cnc(Nc2nc(Sc3cccc(N)c3)nc(N3CCN(C)CC3)n2)s1` [Example 3], for which the inhibition at 1 µM on TrkA Kinase is 50 to 90%; on Ret kinase it was less than 50%; against Flt3 kinase, 50 to 90%; on c-Src kinase it was less than 50%; on Aurora-A kinase it was 50 to 90%.

Consider `Cc1cnc(Nc2nc(Sc3ccc(N)cc3)nc(N3CCN(C)CC3)n2)s1` [Example 2], for which the inhibition at 1 µM against TrkA Kinase was 50 to 90%; at Ret kinase, 50 to 90%; against Flt3 kinase, more than 90%; at c-Src kinase, 50 to 90%; at Aurora-A kinase, 50 to 90%.

As for `CCNC(=O)Nc1ccc(Nc2nc(CC)nc(Nc3cc(C)n(C(=O)NCC)n3)n2)cc1` [Example 13], the inhibition at 1 µM against TrkA Kinase, against Ret kinase, against Flt3 kinase, on c-Src kinase and at Aurora-A kinase was less than 50% each time.

Consider `CCc1nc(Nc2ccc(NC(=O)Nc3ccccc3C)cc2)nc(Nc2cc(C)[nH]n2)n1` [Example 23], for which the inhibition at 1 µM against TrkA Kinase was less than 50%; at Ret kinase, less than 50%; at Flt3 kinase it was less than 50%; on c-Src kinase, less than 50%; on Aurora-A kinase, more than 90%.

Take `CCNC(=O)Nc1ccc(Nc2nc(CC)nc(Nc3cc(C)[nH]n3)n2)cc1` [Example 22]: the inhibition at 1 µM on TrkA Kinase, against Ret kinase, against Flt3 kinase, at c-Src kinase and on Aurora-A kinase was less than 50% in each case.

With `CCc1nc(Nc2ccc(NC(=O)Nc3ccc(OC)cc3)cc2)nc(Nc2cc(C)[nH]n2)n1` [Example 24], the inhibition at 1 µM is less than 50% at TrkA Kinase; 50 to 90% on Ret kinase; 50 to 90% on Flt3 kinase; less than 50% on c-Src kinase; 50 to 90% on Aurora-A kinase.

As to `CCc1nc(Nc2ccc(NC(=O)Nc3ccccc3)cc2)nc(Nc2ncc(C)s2)n1` [Example 15], the inhibition at 1 µM at TrkA Kinase, at Ret kinase, against Flt3 kinase, on c-Src kinase and at Aurora-A kinase was less than 50% in each case.

`CCc1nc(Nc2ccc(NC(=O)NC(C)C)cc2)nc(Nc2cc(C)[nH]n2)n1` [Example 21]: the inhibition at 1 µM against TrkA Kinase, against Ret kinase, against Flt3 kinase, on c-Src kinase and on Aurora-A kinase was less than 50% in each case.
